Test results taken from publication PMC7898822, “RNA‐PROTACs: Degraders of RNA‐Binding Proteins” (Angewandte Chemie (International Ed. in English), 2020).
Oligonucleotides are written 5' to 3', each unit as a sugar letter and its base; * is a phosphorothioate linkage, no mark a phosphodiester; rarer units and linkages stand in square brackets, end groups in braces. Plain capitals give the bases only. {FAM} = fluorescein (FAM) label; r = 2'-OH (RNA)

What was measured:
myc-Lin28A = assay: Ubiquitination assay of myc-Lin28A in 22Rv1 cells; type: cell-based; conditions: HA-Ub co-transfected, 500 nM, 48 h, anti-HA western blot after cMyc IP
Experimental: (§1) Next, we investigated the ability of ORN3P1 and ORN7P1 to mediate ubiquitination of Lin28 in cells, using a previously described protocol. ^[32] Cells from the prostate cancer cell line 22RV1, which express very low levels of Lin28, were co‐transfected with two plasmids expressing pCMV‐myc‐Lin28A and HA‐tagged polyubiquitin (HA‐Ub).
(§2) After 48 h of incubation with ORN3P1 and ORN7P1, the tagged Lin28 (and the control QKI) was immunoprecipitated using an anti‐Myc antibody. The isolated protein was then analyzed by western blotting using the anti‐HA and anti‐c‐Myc antibodies. Consistent with other previously described PROTAC reagents,[ ^32 , ^33 ]
(§3) The protein extracts (12-17 µg) were run on a 4-20% SDS-PAGE and transferred on a nitrocellulose blotting membrane 0.22 µm (GE Healthcare) using the Trans-Blot transfer device (Biorad). Membranes were blocked with 5% milk and incubated with the primary antibody overnight at 4 °C. Membranes were washed with 0.05% PBS-T and reacted with the secondary antibody for 1 h in 5% milk. The proteins were detected using the anti-lin28a antibody (Cell Signaling technology, D9F5), anti-lin28b antibody (Cell Signaling technology, 4196S), anti-rbfox1 (NovusBio, NBP2-13169SS), at 1:1000 and anti-hrnp c antibody […]
(§4) (Abcam, AB133607) at 1:10000 dilutions. […]
(§5) on a ChemiDoc MP imager (Biorad). The intensity of the signal was quantified using the ImageJ-Fiji software. […]

Lin28A [1] = assay: Western blot of Lin28A in NT2/D1 cells; type: cell-based, human; conditions: 2 μM, three independent experiments
Excerpt: Finally, we tested RNA‐PROTACs for their ability to degrade their target in two cell lines: the embryonic NT2/D1 cell line, which expresses high levels of Lin28A, ^[13a] and K562 cells which express Lin28A and Lin28B. […] Finally, we co‐treated K562 cells with ORN3P1 and MG132, a reversible inhibitor of the 26S proteasome. […] In order to explore the versatility of RNA‐PROTACs with non peptide‐based VHL ligands, we conjugated small‐molecule VH032 ^[38] to ORN3 via an amino linker to yield ORN3VH032 (Figure S1). […]

Lin28_ZKD [2] = target: T1, Lin28_ZKD (Homo sapiens, UniProt Q9H9Z2); assay: Fluorescence polarization competition assay (displacement of let7FAM from Lin28_ZKD); type: binding; conditions: competition FP, conjugate vs parent
T1 construct: construct encoding amino acids 124–186 of human Lin28; His6; made in house; host or cells: Escherichia coli BL21 (DE3) Codon+ (RIL)
T1 sequence (Q9H9Z2 124-186): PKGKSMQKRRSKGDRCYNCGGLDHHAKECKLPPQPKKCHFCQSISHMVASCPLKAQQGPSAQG
Experimental: (§6) Fluorescence Polarization Assay. Fluorescence polarization titration assay was carried out by titrating Lin28_ZKD protein into FAM-labeled PreE-let-7 at a 10 nM final concentration and buffer (10 mM HEPES, 150 mM NaCl, 10 µM ZiCl2, pH 7,4). The assay plate was briefly vortexed, and air bubbles were removed by spinning at 1000 rpm. The fluorescence anisotropy was measured on a Spectra Max Paradigm multimode plate reader (Molecular Devices). The fluorescence polarization competition […]
preE-let-7. The concentration of Lin28_ ZKD is kept at 40 nM, a value in the range of the dissociation constant of Lin28_ZKD and preE-let-7 determined through fluorescence polarization titration assay, whereas preE-let-7 concentration is kept constant at 10 nM. FP competitive binding assays were performed on 384-well plates (#3575, Corning) with a total well volume of 10 µL.
(§7) Fluorescence polarization readings were transferred into Prism 7.0 (GraphPad). All fluorescence polarization assays were repeated at least three times and the anisotropy values fitted using GraphPad Prism software using 1:1 binding/inhibition model. […]

Lin28A [3] = assay: Pull-down RNA ELISA, gymnosis, anti-Lin28A; type: cell-based, human; conditions: 3'-biotin conjugates, K562 cells, 2 µM, 24 h; streptavidin plate; vs mock or FUS antibody
Excerpt: Humans express two paralogs of the protein, LIN28 (Lin28A) and LIN28B (Lin28B), that play key roles in development, metabolism, and pluripotency. ^[34] Lin28 proteins are abundantly expressed during embryonic development, as well as in several tumors and tumor‐derived cell lines. ^[35] […] In order to confirm that RNA‐PROTACs bind to endogenous Lin28 in cells, we performed a pull‐down RNA ELISA assay that we have previously described. ^[36] Thus, we conjugated a biotin group to the 3′ ends of ORN3P1 and ORN7P1 and added these reagents separately on to myelogenous leukemia K562 cells. We incubated lysates from treated cells on streptavidin‐coated plates so as to capture the RNA‐PROTACs present in the cell lysates. We then assayed for the presence of Lin28A in the plates using an anti‐Lin28A antibody and a negative control anti‐FUS antibody. […]
as §3, with “Membranes were blocked with 5% milk and incubated with the primary antibody overnight at 4 °C. Membranes were washed with 0.05% PBS-T and reacted with the secondary antibody for 1 h in 5% milk.” left out
as §5

QKI (pDEST-Myc-QKI) = assay: Ubiquitination assay of Myc-QKI (negative control RBP) in 22Rv1 cells; type: cell-based; conditions: pDEST-Myc-QKI and HA-Ub, 500 nM, 48 h
Experimental: as §1, §2, §3, §4, §5

Lin28_ZKD [4] = target: T1, Lin28_ZKD; assay: Fluorescence polarization titration, Lin28_ZKD binding to preE-let-7f-1-FAM; conditions: Lin28_ZKD titrated into FAM-labeled preE-let-7, 10 nM; 10 mM HEPES, 150 mM NaCl, pH 7.4; read-out: K D of the Lin28_ZKD/let7FAM interaction
Experimental: as §6, with “Devices).” for “Devices). The fluorescence polarization competition”
as §7

Row | Molecule | ubiquitination of myc-Lin28A (myc-Lin28A) | reduction of Lin28A (Lin28A [1]) [%] | competition for Lin28_ZKD relative to parent unconjugated oligonucleotides (Lin28_ZKD [2]) | Lin28A pull-down signal (Lin28A [3]) | ubiquitination of QKI (QKI (pDEST-Myc-QKI)) | Kd (Lin28_ZKD [4]) [µM]
1 | CC[C@H](C)[C@H](NC(=O)[C@H](Cc1ccc(O)cc1)NC(=O)[C@@H]1C[C@@H](O)CN1C(=O)[C@H](C)NC(=O)[C@H](CC(C)C)NC(=O)CCCCCNC(=O)[C@@H](N)CSC1CC(=O)N(CCOP(=O)(S)OC[C@H]2O[C@@H](n3cnc4c(N)ncnc43)[C@H](OCCOC)[C@@H]2OP(=O)(S)OC[C@H]2O[C@@H](n3cnc4c(=O)[nH]c(N)nc43)[C@H](OCCOC)[C@@H]2OP(=O)(S)OC[C@H]2O[C@@H](n3cnc4c(=O)[nH]c(N)nc43)[C@H](OCCOC)[C@@H]2OP(=O)(S)OC[C@H]2O[C@@H](n3cnc4c(N)ncnc43)[C@H](OCCOC)[C@@H]2OP(=O)(S)OC[C@H]2O[C@@H](n3cnc4c(=O)[nH]c(N)nc43)[C@H](OCCOC)[C@@H]2OP(=O)(S)OC[C@H]2O[C@@H](n3cnc4c(N)ncnc43)[C@H](OCCOC)[C@@H]2OP(=O)(S)OC[C@H]2O[C@@H](n3cc(C)c(=O)[nH]c3=O)[C@H](OCCOC)[C@@H]2OP(=O)(S)OC[C@H]2O[C@@H](n3cnc4c(N)ncnc43)[C@H](OCCOC)[C@@H]2OP(=O)(S)OC[C@H]2O[C@@H](n3cnc4c(N)ncnc43)[C@H](OCCOC)[C@@H]2OP(=O)(S)OC[C@H]2O[C@@H](n3cc(C)c(N)nc3=O)[C@H](OCCOC)[C@@H]2OP(=O)(S)OC[C@H]2O[C@@H](n3cc(C)c(=O)[nH]c3=O)[C@H](OCCOC)[C@@H]2O)C1=O)C(=O)O (stereo partly drawn) [ORN7P1] | showed a smear on the gel towards higher molecular weight | ~50 | competed slightly more strongly | strong signal for Lin28A protein | showed no such effects | 
2 | Let7FAM: FAM_GGGGUAGUGAUUU UACCCUGUUCAGGAGAU, PO-RNA; fluorescent probe ({FAM}-rGrGrGrGrUrArGrUrGrArUrUrUrUrArCrCrCrUrGrUrUrCrArGrGrArGrArU) |  |  |  |  |  | 0.027
